# Read-outs that look alike come from different tables or passages of the source.
# Experiments:
# HiBit-BRM fusion protein = target: T1, HiBit-BRM fusion protein (Homo sapiens, UniProt P51531); experiment: HiBiT-BRM cell-based degradation assay (Nano-Glo HiBiT lytic detection, 24 h); conditions: HeLa cell line expressing HiBiT-BRM; for DC50: read-out: BRM HiBit Degradation IC50
# T1 construct: expressed in transfected cells
# Summary of the method: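 Luminescence from LgBiT complementation quantified remaining HiBiT-BRM in stably expressing HeLa cells after 24 h compound exposure (top final dose 30 μM, 3-fold, 10 points, duplicate). Degradation expressed as percent relative to DMSO and a 2 μM reference degrader.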
# [1] = target: T2, HiBit-BRG1 fusion protein (Homo sapiens, UniProt P51532); experiment: HiBiT-BRG1 cell-based degradation assay (Nano-Glo HiBiT lytic detection, 24 h); conditions: for Dmax: read-out: BRG1 HiBit Degradation Maximum (%); for DC50: read-out: BRMG1 HiBit Degradation IC50
# T2 construct: expressed in transfected cells
# Summary of the method: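 Luminescence from HiBiT/LgBiT complementation after lytic detection reagent was read following 24 h compound exposure of HeLa cells stably carrying HiBiT-BRG1 plus LgBiT (5000 cells/well). Signal scaled to % degradation using DMSO-treated cells as 0% and cells given 2 μM known BRM/BRG1 degrader as 100%.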
# [2] = HeLa cell line expressing HiBit-BRG1 and LgBit
# T2 sequence (P51532 whole entry, the tested form may be a part): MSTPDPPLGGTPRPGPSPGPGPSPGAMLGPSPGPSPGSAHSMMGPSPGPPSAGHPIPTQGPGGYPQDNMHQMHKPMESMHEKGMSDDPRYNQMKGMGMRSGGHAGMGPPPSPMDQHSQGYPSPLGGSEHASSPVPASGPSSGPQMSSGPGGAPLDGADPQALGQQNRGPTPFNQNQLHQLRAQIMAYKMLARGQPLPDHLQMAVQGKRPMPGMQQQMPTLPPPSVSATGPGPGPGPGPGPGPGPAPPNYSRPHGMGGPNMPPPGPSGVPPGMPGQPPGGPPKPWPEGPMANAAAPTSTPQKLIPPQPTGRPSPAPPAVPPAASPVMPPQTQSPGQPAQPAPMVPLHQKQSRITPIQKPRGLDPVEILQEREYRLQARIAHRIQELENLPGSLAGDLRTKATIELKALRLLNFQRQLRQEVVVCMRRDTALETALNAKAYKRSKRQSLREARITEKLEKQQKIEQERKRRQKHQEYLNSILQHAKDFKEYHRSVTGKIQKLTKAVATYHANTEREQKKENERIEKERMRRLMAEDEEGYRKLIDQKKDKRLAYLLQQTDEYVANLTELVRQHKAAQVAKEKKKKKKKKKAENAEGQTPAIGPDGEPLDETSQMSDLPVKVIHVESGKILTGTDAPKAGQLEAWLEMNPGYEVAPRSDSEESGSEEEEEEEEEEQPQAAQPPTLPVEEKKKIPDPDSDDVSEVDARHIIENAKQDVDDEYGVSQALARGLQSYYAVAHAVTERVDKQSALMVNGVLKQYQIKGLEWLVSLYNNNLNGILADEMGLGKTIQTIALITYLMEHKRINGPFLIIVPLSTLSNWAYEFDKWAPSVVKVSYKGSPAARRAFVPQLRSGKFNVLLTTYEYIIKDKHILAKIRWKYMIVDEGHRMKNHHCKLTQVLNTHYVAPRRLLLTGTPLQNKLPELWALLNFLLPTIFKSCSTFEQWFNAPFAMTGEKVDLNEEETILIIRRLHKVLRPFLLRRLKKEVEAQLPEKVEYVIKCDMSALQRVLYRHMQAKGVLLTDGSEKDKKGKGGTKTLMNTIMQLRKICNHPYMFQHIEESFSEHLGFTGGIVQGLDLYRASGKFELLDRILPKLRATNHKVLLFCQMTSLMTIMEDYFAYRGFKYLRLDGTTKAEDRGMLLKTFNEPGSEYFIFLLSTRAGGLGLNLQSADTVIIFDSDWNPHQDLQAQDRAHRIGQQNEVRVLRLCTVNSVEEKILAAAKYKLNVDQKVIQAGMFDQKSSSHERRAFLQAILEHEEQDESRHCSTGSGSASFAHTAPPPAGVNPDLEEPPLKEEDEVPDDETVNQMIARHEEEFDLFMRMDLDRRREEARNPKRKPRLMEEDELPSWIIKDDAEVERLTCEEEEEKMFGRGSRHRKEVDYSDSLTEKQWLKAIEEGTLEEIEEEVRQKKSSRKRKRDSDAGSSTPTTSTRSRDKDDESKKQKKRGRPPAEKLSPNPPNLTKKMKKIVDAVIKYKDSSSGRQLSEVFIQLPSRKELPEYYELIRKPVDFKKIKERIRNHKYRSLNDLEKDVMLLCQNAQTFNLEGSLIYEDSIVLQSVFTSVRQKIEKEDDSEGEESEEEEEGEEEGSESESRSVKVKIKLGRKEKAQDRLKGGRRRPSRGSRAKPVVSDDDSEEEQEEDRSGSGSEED
# T1 sequence (P51531 whole entry, the tested form may be a part): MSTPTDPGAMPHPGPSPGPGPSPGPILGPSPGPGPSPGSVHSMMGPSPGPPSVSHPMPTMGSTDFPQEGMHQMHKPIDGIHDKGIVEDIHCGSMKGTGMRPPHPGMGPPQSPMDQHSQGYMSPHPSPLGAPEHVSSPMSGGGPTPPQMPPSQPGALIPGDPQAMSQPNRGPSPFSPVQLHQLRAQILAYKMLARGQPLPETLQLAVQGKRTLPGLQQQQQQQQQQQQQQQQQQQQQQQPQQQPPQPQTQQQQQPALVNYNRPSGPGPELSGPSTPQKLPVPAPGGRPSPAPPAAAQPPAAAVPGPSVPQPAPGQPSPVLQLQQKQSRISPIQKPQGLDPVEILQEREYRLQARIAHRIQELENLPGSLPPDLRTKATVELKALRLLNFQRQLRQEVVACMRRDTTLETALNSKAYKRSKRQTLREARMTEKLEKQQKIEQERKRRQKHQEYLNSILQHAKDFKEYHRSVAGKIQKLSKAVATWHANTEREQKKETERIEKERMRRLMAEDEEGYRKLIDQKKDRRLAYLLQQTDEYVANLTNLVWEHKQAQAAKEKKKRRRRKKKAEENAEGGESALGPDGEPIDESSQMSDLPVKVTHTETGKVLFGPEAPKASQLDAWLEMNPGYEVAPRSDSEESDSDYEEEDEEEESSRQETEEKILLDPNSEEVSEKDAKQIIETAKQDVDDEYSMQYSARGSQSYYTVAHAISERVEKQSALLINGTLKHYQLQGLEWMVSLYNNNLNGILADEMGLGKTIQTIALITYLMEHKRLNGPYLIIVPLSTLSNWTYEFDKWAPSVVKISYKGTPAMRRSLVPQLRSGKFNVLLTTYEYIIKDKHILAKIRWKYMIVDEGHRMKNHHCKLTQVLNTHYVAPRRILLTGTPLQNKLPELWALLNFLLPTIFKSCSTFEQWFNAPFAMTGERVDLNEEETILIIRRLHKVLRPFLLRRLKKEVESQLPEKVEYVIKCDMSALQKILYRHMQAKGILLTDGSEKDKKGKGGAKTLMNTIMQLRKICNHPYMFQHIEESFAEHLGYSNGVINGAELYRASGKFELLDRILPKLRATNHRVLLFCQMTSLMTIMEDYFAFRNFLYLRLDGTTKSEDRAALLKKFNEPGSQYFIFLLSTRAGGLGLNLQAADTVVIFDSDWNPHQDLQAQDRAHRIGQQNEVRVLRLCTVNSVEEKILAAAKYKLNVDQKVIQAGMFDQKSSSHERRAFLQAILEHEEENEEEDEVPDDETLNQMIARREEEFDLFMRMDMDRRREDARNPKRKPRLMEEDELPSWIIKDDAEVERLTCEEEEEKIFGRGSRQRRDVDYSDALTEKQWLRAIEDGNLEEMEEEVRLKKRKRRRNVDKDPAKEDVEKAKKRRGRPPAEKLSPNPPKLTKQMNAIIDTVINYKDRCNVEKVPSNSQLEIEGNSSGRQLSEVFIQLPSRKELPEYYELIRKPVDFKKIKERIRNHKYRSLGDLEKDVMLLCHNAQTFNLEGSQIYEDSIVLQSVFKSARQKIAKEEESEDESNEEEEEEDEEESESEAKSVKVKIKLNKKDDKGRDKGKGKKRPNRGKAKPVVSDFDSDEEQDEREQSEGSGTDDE
Structure (SMILES),DC50 (HiBit-BRM fusion protein) [nM],"Dmax [1, 2] [%]","DC50 [1, 2] [nM]",Dmax ([1]; HeLa) [%],BRM HiBit Degradation Maximum (%) (HiBit-BRM fusion protein)
"Cc1ncsc1-c1ccc([C@H](C)NC(=O)[C@@H]2C[C@@H](O)CN2C(=O)[C@@H](c2cc(OCCN3CCN(c4cc5nnc(-c6ccccc6O)cc5n4C)CC3)no2)C(C)C)cc1 [Compound 27, (2S,4R)-4-hydroxy-1-[(2R)-2-[3-(2-{4-[3-(2-hydroxyphenyl)-5-methylpyrrolo[3,2-c]pyridazin-6-yl]piperazin-1-yl}ethoxy)-1,2-oxazol-5-yl]-3-methylbutanoyl]-N-[(1S)-1-[4-(4-methyl-1,3-thiazol-5-yl)phenyl]ethyl]pyrrolidine-2-carboxamide]",< 10,> 75,> 10,,A (“A” indicates maximum degradation ≥75%)
"Cc1ncsc1-c1ccc([C@H](C)NC(=O)[C@@H]2C[C@@H](O)CN2C(=O)[C@H](c2cc(-c3cnc(N4CCC(c5cc6nnc(-c7ccccc7O)cc6n5C)CC4)nc3)no2)C(C)C)cc1 [Compound 22, (2S,4R)-4-hydroxy-1-((S)-2-(3-(2-(4-(3-(2-hydroxyphenyl)-5-methyl-5H-pyrrolo[3,2-c]pyridazin-6-yl)piperidin-1-yl)pyrimidin-5-yl)isoxazol-5-yl)-3-methylbutanoyl)-N—((S)-1-(4-(4-methylthiazol-5-yl)phenyl)ethyl)pyrrolidine-2-carboxamide]",> 100,,,< 50,B (“B” indicates maximum degradation ≥50%)
"Cc1ncsc1-c1ccc([C@H](C)NC(=O)[C@@H]2C[C@@H](O)CN2C(=O)[C@@H](c2cc(N3CCC(CN4CC(c5cc6nnc(-c7ccccc7O)cc6[nH]5)C4)CC3)no2)C(C)C)cc1 [Compound 4, (2S,4R)-4-hydroxy-1-((R)-2-(3-(4-((3-(3-(2-hydroxyphenyl)-5H-pyrrolo[3,2-c]pyridazin-6-yl)azetidin-1-yl)methyl)piperidin-1-yl)isoxazol-5-yl)-3-methylbutanoyl)-N-((S)-1-(4-(4-methylthiazol-5-yl)phenyl)ethyl)pyrrolidine-2-carboxamide]",> 10,> 50,> 100,,A (“A” indicates maximum degradation ≥75%)
"Cc1ncsc1-c1ccc([C@H](C)NC(=O)[C@@H]2C[C@@H](O)CN2C(=O)[C@@H](c2cc(OCCN3CC(c4cc5nnc(-c6ccccc6O)cc5n4C)C3)no2)C(C)C)cc1 [Compound 8, (2S,4R)-4-hydroxy-1-((R)-2-(3-(2-(3-(3-(2-hydroxyphenyl)-5-methyl-5H-pyrrolo[3,2-c]pyridazin-6-yl)azetidin-1-yl)ethoxy)isoxazol-5-yl)-3-methylbutanoyl)-N—((S)-1-(4-(4-methylthiazol-5-yl)phenyl)ethyl) pyrrolidine-2-carboxamide]",< 10,> 75,> 10,,A (“A” indicates maximum degradation ≥75%)
"Cc1ncsc1-c1ccc([C@H](C)NC(=O)[C@@H]2C[C@@H](O)CN2C(=O)[C@@H](c2cc(OCCN3CC(n4ccc5nnc(-c6ccccc6O)cc54)C3)no2)C(C)C)cc1 [Compound 31, (2S,4R)-4-hydroxy-1-[(2R)-2-[3-(2-{3-[3-(2-hydroxyphenyl)pyrrolo[3,2-c]pyridazin-5-yl]azetidin-1-yl}ethoxy)-1,2-oxazol-5-yl]-3-methylbutanoyl]-N-[(1S)-1-[4-(4-methyl-1,3-thiazol-5-yl)phenyl]ethyl]pyrrolidine-2-carboxamide]",> 10,< 50,,,B (“B” indicates maximum degradation ≥50%)
"CCn1c(C2CCN(c3ncc(-c4cc([C@@H](C(=O)N5C[C@H](O)C[C@H]5C(=O)N[C@@H](C)c5ccc(-c6scnc6C)cc5)C(C)C)on4)cn3)CC2)cc2nnc(-c3ccccc3O)cc21 [Compound 24, (2S,4R)-1-[(2S)-2-[3-(2-{4-[5-ethyl-3-(2-hydroxyphenyl)pyrrolo[3,2-c]pyridazin-6-yl]piperidin-1-yl}pyrimidin-5-yl)-1,2-oxazol-5-yl]-3-methylbutanoyl]-4-hydroxy-N-[(1S)-1-[4-(4-methyl-1,3-thiazol-5-yl)phenyl]ethyl]pyrrolidine-2-carboxamide]",> 10,< 50,,,B (“B” indicates maximum degradation ≥50%)
"CC[C@H](C)NC(=O)[C@@H]1C[C@@H](O)CN1C(=O)C(c1cc(N2CC3(CC(c4cc5nnc(-c6ccccc6O)cc5n4C4CCC4)C3)C2)no1)C(C)C (stereo partly drawn) [Compound 51, (2S,4R)-N-((S)-sec-butyl)-1-(2-(3-(6-(5-cyclobutyl-3-(2-hydroxyphenyl)-5H-pyrrolo[3,2-c]pyridazin-6-yl)-2-azaspiro[3.3]heptan-2-yl)isoxazol-5-yl)-3-methylbutanoyl)-4-hydroxypyrrolidine-2-carboxamide]",> 10,< 50,,,A (“A” indicates maximum degradation ≥75%)
"Cc1ncsc1-c1ccc([C@H](C)NC(=O)[C@@H]2C[C@@H](O)CN2C(=O)[C@@H](c2cc(OCCN3CCC(c4cc5nnc(-c6ccccc6O)cc5[nH]4)CC3)no2)C(C)C)cc1 [Compound 17, (2S,4R)-4-hydroxy-1-[(2R)-2-[3-(2-{4-[3-(2-hydroxyphenyl)-5H-pyrrolo[3,2-c]pyridazin-6-yl]piperidin-1-yl}ethoxy)-1,2-oxazol-5-yl]-3-methylbutanoyl]-N-[(1S)-1-[4-(4-methyl-1,3-thiazol-5-yl)phenyl]ethyl]pyrrolidine-2-carboxamide]",< 10,> 75,> 10,,A (“A” indicates maximum degradation ≥75%)
"C#Cc1ccc(CNC(=O)[C@@H]2C[C@@H](O)CN2C(=O)C(c2cc(N3CC4(CC(c5cc6nnc(-c7ccccc7O)cc6n5C5CCC5)C4)C3)no2)C(C)C)c(Cl)c1 (stereo partly drawn) [Compound 59, (2S,4R)-N-(2-chloro-4-ethynylbenzyl)-1-(2-(3-(6-(5-cyclobutyl-3-(2-hydroxyphenyl)-5H-pyrrolo[3,2-c]pyridazin-6-yl)-2-azaspiro[3.3]heptan-2-yl)isoxazol-5-yl)-3-methylbutanoyl)-4-hydroxypyrrolidine-2-carboxamide]",> 10,< 50,,,A (“A” indicates maximum degradation ≥75%)

# Further lines, with some results ahead:
DC50 (HiBit-BRM fusion protein) [nM],"Dmax [1, 2] [%]","DC50 [1, 2] [nM]",Dmax ([1]; HeLa) [%],Structure (SMILES),BRM HiBit Degradation Maximum (%) (HiBit-BRM fusion protein)
< 10,> 50,> 10,,"Cc1ncsc1-c1ccc([C@H](C)NC(=O)[C@@H]2C[C@@H](O)CN2C(=O)[C@@H](c2cc(-c3cnc(N4CC[C@H](c5cc6nnc(-c7ccccc7O)cc6n5C56CC(C5)C6)C4)nc3)no2)C(C)C)cc1 [Compound 95, (2S,4R)-1-((R)-2-(3-(2-((S)-3-(5-(bicyclo[1.1.1]pentan-1-yl)-3-(2-hydroxyphenyl)-5H-pyrrolo[3,2-c]pyridazin-6-yl)pyrrolidin-1-yl)pyrimidin-5-yl)isoxazol-5-yl)-3-methylbutanoyl)-4-hydroxy-N-((S)-1-(4-(4-methylthiazol-5-yl)phenyl)ethyl)pyrrolidine-2-carboxamide]",A (“A” indicates maximum degradation ≥75%)
< 10,< 50,,,"C#Cc1ccc([C@H](C)NC(=O)[C@@H]2C[C@@H](O)CN2C(=O)C(c2cc(N3CC4(CC(c5cc6nnc(-c7ccccc7O)cc6n5C5CCC5)C4)C3)no2)C(C)C)cc1 (stereo partly drawn) [Compound 60, (2S,4R)-1-(2-(3-(6-(5-cyclobutyl-3-(2-hydroxyphenyl)-5H-pyrrolo[3,2-c]pyridazin-6-yl)-2-azaspiro[3.3]heptan-2-yl)isoxazol-5-yl)-3-methylbutanoyl)-N-((S)-1-(4-ethynylphenyl)ethyl)-4-hydroxypyrrolidine-2-carboxamide]",A (“A” indicates maximum degradation ≥75%)
> 10,< 50,,,"CC(C)C(C(=O)N1C[C@H](O)C[C@H]1C(=O)NC1CCC1)c1cc(N2CC3(CC(c4cc5nnc(-c6ccccc6O)cc5n4C4CCC4)C3)C2)no1 (stereo partly drawn) [Compound 118, (2S,4R)-N-cyclobutyl-1-(2-(3-(6-(5-cyclobutyl-3-(2-hydroxyphenyl)-5H-pyrrolo[3,2-c]pyridazin-6-yl)-2-azaspiro[3.3]heptan-2-yl)isoxazol-5-yl)-3-methylbutanoyl)-4-hydroxypyrrolidine-2-carboxamide]",A (“A” indicates maximum degradation ≥75%)
< 10,< 50,,,"Cc1ncsc1-c1ccc([C@H](C)NC(=O)[C@@H]2C[C@@H](O)CN2C(=O)[C@@H](c2cc(-c3cnc(N4CC[C@@H](c5cc6nnc(-c7cccc(Cl)c7O)cc6n5C5CC5)C4)nc3)no2)C(C)C)cc1 [Compound 69, (2S,4R)-1-((R)-2-(3-(2-((R)-3-(3-(3-chloro-2-hydroxyphenyl)-5-cyclopropyl-5H-pyrrolo[3,2-c]pyridazin-6-yl)pyrrolidin-1-yl)pyrimidin-5-yl)isoxazol-5-yl)-3-methylbutanoyl)-4-hydroxy-N-((S)-1-(4-(4-methylthiazol-5-yl)phenyl)ethyl)pyrrolidine-2-carboxamide]",A (“A” indicates maximum degradation ≥75%)
< 10,> 75,> 10,,"Cc1ncsc1-c1ccc([C@H](C)NC(=O)[C@@H]2C[C@@H](O)CN2C(=O)[C@@H](c2cc(N3CCC4(CCC(c5cc6nnc(-c7ccccc7O)cc6n5C5CC5)CC4)CC3)no2)C(C)C)cc1 [Compound 85, (2S,4R)-1-((R)-2-(3-(9-(5-cyclopropyl-3-(2-hydroxyphenyl)-5H-pyrrolo[3,2-c]pyridazin-6-yl)-3-azaspiro[5.5]undecan-3-yl)isoxazol-5-yl)-3-methylbutanoyl)-4-hydroxy-N-((S)-1-(4-(4-methylthiazol-5-yl)phenyl)ethyl)pyrrolidine-2-carboxamide]",A (“A” indicates maximum degradation ≥75%)

# — patent publication US20250302832A1, “PYRAZINE DERIVATIVES AND USES THEREOF” (FOGHORN THERAPEUTICS INC., priority 2022, published 2025)
